Reference: BindingDB's records for doi:10.1021/jm0003440 (Merck Frosst Centre For Therapeutic Research, 2001)

Test: Inhibitory activity tested against Human Cathepsin K receptor using bone resorption assay

For `N#CN1CCC(NC(=O)OCc2ccccc2)C1` (stereo unspecified) [(1-Cyano-pyrrolidin-3-yl)-carbamic acid benzyl ester], the IC50 was 1.41 µM.
